Paper PMC6240092, “NUAK2 is a critical YAP target in liver cancer” (Nature Communications, 2018)

Molecular target: T1, NUAK2 (Homo sapiens, UniProt Q9H093)
T1 construct: N-terminal GST-tagged NUAK2, expressed in HEK-293 cells and purified by glutathione-sepharose
T1 sequence (Q9H093 1-628): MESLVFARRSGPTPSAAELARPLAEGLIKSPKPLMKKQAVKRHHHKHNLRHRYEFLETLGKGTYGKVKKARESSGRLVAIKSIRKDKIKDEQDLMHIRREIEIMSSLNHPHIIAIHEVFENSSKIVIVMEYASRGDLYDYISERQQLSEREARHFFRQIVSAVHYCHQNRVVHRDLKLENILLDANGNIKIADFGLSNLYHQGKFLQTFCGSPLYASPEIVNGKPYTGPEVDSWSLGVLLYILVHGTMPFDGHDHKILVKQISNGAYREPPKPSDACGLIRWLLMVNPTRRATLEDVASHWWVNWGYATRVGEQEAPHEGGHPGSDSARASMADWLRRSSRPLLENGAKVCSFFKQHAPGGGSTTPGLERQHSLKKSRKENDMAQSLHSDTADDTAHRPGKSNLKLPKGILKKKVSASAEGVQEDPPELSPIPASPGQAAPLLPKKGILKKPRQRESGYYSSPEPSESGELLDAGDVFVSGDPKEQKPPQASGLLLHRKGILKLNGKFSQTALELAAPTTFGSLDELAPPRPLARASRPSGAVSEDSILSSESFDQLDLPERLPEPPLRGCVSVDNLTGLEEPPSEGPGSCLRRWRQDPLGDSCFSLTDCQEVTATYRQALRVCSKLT
Assay: radiometric peptide kinase assay with [γ-32P]ATP ([…]) and Sakamototide ([…])
Type: biochemical

IC50: 126 nM
Compound: CCC(=O)Nc1cccc(Oc2nc(Nc3ccc(N4CCN(C)CC4)cc3OC)ncc2I)c1 [HTH-02-006]
